Values quoted from earlier work as cited in US20100272789A1, “EXTERNAL MEDICINE FOR TREATMENT OR PREVENTION” (priority 2007, published 2010).

Details: 20 degrees Celsius at 1 atm

SMILES: [HH] [hydrogen molecules, hydrogen]
- solubility of hydrogen molecules into water: 1.6 µg/mL
